In patent US12568967B2, “Compositions comprising pyridine carboxylate herbicides with synthetic auxin herbicides or auxin transport inhibitors” (priority 2018, dated 2026):
Several values for one entry are separate records, joined by “and”; a condition that tells them apart may be missing. Equal values may be shown once. Read-outs that look alike come from different tables or passages of the source.

Tests used:
Assay type in all cases: in vivo
[1] = tested on: Anthemis arvensis (field chamomile, ANTAR); assay: Greenhouse postemergence trial ANTAR; conditions: ANTAR; for % visual injury Obs: alone; for % visual injury, Obs: applied alone
[2] = tested on: Papaver rhoeas (corn poppy, PAPRH); assay: Greenhouse postemergence trial PAPRH; conditions: PAPRH; for % visual injury Obs: alone; for % visual injury, Obs: applied alone
Protocol: (§1) Seeds of the desired test plant species were planted in a 90:10% v/v (volume/volume) mixture of PRO-MIX® BX (Premier Tech Horticulture, Quakertown, PA, USA) and PROFILE® GREENS GRADE™ (Profile Products LLC, Buffalo Grove, IL, USA) planting mixture, which typically has a pH of 5.2 to 6.2 and an organic matter content of at least 50 percent, in plastic pots with a surface area of 103.2 square centimeters (cm^2). […] The plants were grown for 7-36 days (d) in a greenhouse with an approximate 14-hour (h) photo-period which was maintained at about 23° C. during the day and 22° C. during the night. Nutrients and water were added on a regular basis and supplemental lighting was provided with overhead metal halide 1000-Watt lamps as necessary. The plants were employed for testing when they reached the second or third true leaf stage.
(§2) Emulsifiable concentrates of each of each pyridine carboxylate herbicide (Compound A or Compound B) were prepared at 100 grams acid equivalent per liter (g ae/L). The emulsifiable concentrates also included a safener, cloquintocet-mexyl, at 120 grams active ingredient per liter (g ai/L), unless otherwise noted below. An aliquot of each emulsifiable concentrate was placed in a 25 mL glass vial and diluted with an aqueous mixture of 1.25% (v/v) ACTIROB® B esterified rapeseed oil (Bayer Crop Science, Research Triangle Park, NC, USA) or MSO® Concentrate with LECI-TECH® methylated soybean oil (Loveland Products, Loveland, CO, USA) to obtain concentrated stock solutions at the highest application rate for each herbicide, based upon a 12 milliliter (mL) application volume at a rate of 187 liters per hectare (L/ha). The concentrated stock solutions were further diluted with an aqueous mixture of 1.25% v/v ACTIROB® B or MSO® Concentrate with LECI-TECH® to obtain stock solutions at reduced application rates for each herbicide. Spray solutions of the herbicide combinations (Compound A or Compound B plus synthetic auxin herbicide or auxin transport inhibitor) were prepared by adding weighed amounts or aliquots of the synthetic auxin herbicide or auxin transport inhibitor to the stock solutions of Compound A or Compound B to form 12-mL spray solutions in two-way combinations.
(§3) The spray solutions were applied to the plant material with an overhead Mandel track sprayer equipped with 8002E nozzles calibrated to deliver 187 L/ha over an application area of 0.503 square meters (m^2) at a spray height of 18 inches (43 centimeters (cm)) above the average plant canopy. Control plants were sprayed in the same manner with the solvent blank. All pyridine carboxylate herbicide (component a) application rates are given as “g ae/ha” and all synthetic auxin herbicide or auxin transport inhibitor (component b) application rates are given as “g ai/ha.”
(§4) The treated plants and control plants were placed in a greenhouse as described above and watered by sub-irrigation to prevent wash-off of the test compounds. After 20-22 d, the condition of the test plants as compared with that of the control plants was determined visually and scored on a scale of 0 to 100 percent where 0 corresponds to no injury and 100 corresponds to complete kill.

[3] = tested on: Digitaria sanguinalis (large crabgrass, DIGSA); assay: Greenhouse postemergence trial DIGSA; conditions: Compound A 10 g/ha
Protocol: as §1, §2, §3, §4

[4] = tested on: Amaranthus retroflexus (pigweed, AMARE); assay: Greenhouse postemergence trial AMARE;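 note: Greenhouse-grown plants sprayed at second to third true leaf stage, injury rated by eye after 20-22 d versus solvent-blank sprayed controls, 0 = no injury, 100 = complete kill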
Protocol: The plants were grown for 7-36 days (d) in a greenhouse with an approximate 14-hour (h) photo-period which was maintained at about 23° C. during the day and 22° C. during the night. Nutrients and water were added on a regular basis and supplemental lighting was provided with overhead metal halide 1000-Watt lamps as necessary. The plants were employed for testing when they reached the second or third true leaf stage.
The emulsifiable concentrates also included a safener, cloquintocet-mexyl, at 120 grams active ingredient per liter (g ai/L), unless otherwise noted below.
Control plants were sprayed in the same manner with the solvent blank. All pyridine carboxylate herbicide (component a) application rates are given as “g ae/ha” and all synthetic auxin herbicide or auxin transport inhibitor (component b) application rates are given as “g ai/ha.”
as §4

[5] = tested on: Hordeum vulgare (spring barley, HORVS)
[6] = tested on: Cirsium arvense (Canadian thistle, CIRAR); assay: Greenhouse postemergence trial CIRAR
[7] = tested on: Abutilon theophrasti (velvetleaf, ABUTH); assay: Greenhouse postemergence trial ABUTH; conditions: Compound A 10 g/ha
Protocol: as §1, §2, §3, §4

[8] = Hordeum vulgare (spring barley, HORVS), in vivo

`N#CCOC(=O)c1nc(-c2ccc3cc[nH]c3c2F)c(F)c(N)c1Cl` [Compound A, cyanomethyl 4-amino-3-chloro-5-fluoro-6-(7-fluoro-1H-indol-6-yl)pyridine-2-carboxylate] was tested, and the “% visual injury Obs” value ([1]; 10 g/ha) was 100%, the “% visual injury Obs” value ([1]; 15 g/ha) was 100% and the “% visual injury, Obs” value ([1]; 10 g/ha) was 100%. The “% visual injury, Obs” value ([1]; 15 g/ha) was 100%, the pest or weed control at […] ([1]; Anthemis arvensis, post-emergence, Compound A 7.5 g/ha, read-out: % visual injury Obs) was 95% and the pest or weed control at 10 g/ha ([1]; Anthemis arvensis, post-emergence, Compound A 10 g/ha, read-out: % visual injury Obs) was 100%. The pest or weed control at 15 g/ha ([1]; Anthemis arvensis, post-emergence, Compound A 15 g/ha, read-out: % visual injury Obs) was 100%, the “visual injury, Obs” value ([2]; Compound A 10 g/ha alone) was 100% and the “visual injury, Obs” value ([2]; Compound A 15 g/ha alone) was 100%. The “% visual injury Obs” value ([2]; 10 g/ha) was 100%, the “% visual injury Obs” value ([2]; 15 g/ha) was 100% and the “% visual injury, Obs” value ([2]; 10 g/ha) was 100%. For the same compound, the “% visual injury, Obs” value ([2]; 15 g/ha) was 100%, the pest or weed control at […] ([2]; Papaver rhoeas, post-emergence, Compound A 7.5 g/ha, read-out: % visual injury Obs) was 100% and the pest or weed control at 10 g/ha ([2]; Papaver rhoeas, post-emergence, Compound A 10 g/ha, read-out: % visual injury Obs) was 100%. For the same compound, the pest or weed control at 15 g/ha ([2]; Papaver rhoeas, post-emergence, Compound A 15 g/ha, read-out: % visual injury Obs) was 100%, the “DIGSA Obs (% visual injury)” value [3] was 25% and the “DIGSA Obs (% visual injury)” value ([3]; without safener) was 8%. For the same compound, the “% visual injury, Obs” value ([3]; DIGSA) was 8%, the “% visual injury, Obs” value ([4]; AMARE, Compound A 10 g/ha) was 100% and 90% and the “% visual injury (Obs)” value ([4]; AMARE, alone 10 g/ha) was 98% and 90%. For the same compound, the “% visual injury, Obs” value ([4]; AMARE, applied alone, 10 g/ha) was 85%, the “AMARE Obs (% visual injury)” value ([4]; Compound A 10 g/ha) was 100% and 98% and the “AMARE % visual injury Obs” value ([4]; Compound A 10 g/ha (Table 42)) was 100%. The “AMARE % visual injury Obs” value ([4]; Compound A 10 g/ha (Table 43)) was 100%, the “AMARE % visual injury Obs” value ([4]; Compound A 10 g/ha (Table 44)) was 100% and the “HORVS Obs (% visual injury)” value ([5]; Compound A 10 g/ha) was 0%. For the same compound, the “HORVS % visual injury Obs” value ([5]; Compound A 10 g/ha (Table 42)) was 0%, the “HORVS % visual injury Obs” value ([5]; Compound A 10 g/ha (Table 43)) was 0% and the “HORVS % visual injury Obs” value ([5]; Compound A 10 g/ha (Table 44)) was 0%. For the same compound, the “% visual injury Obs” value ([5]; HORVS, Compound A 10 g/ha) was 0%, the “% visual injury, Obs” value ([5]; HORVS, Compound A 10 g/ha) was 0% and the “visual injury, Obs” value ([5]; HORVS, Compound A 10 g/ha alone) was 0%. For the same compound, the “% visual injury Obs” value ([5]; HORVS, Compound A 15 g/ha) was 0%, the “visual injury, Obs” value ([5]; HORVS, Compound A 15 g/ha alone) was 0% and the “% visual injury (Obs)” value ([5]; HORVS, alone 10 g/ha) was 0%. For the same compound, the “% visual injury Obs” value ([5]; HORVS, alone 10 g/ha) was 0%, the “% visual injury Obs” value ([5]; HORVS, alone, 15 g/ha) was 0% and the “% visual injury, Obs” value ([5]; HORVS, applied alone, 10 g/ha) was 0%. For the same compound, the “% visual injury, Obs” value ([5]; HORVS, applied alone, 15 g/ha) was 0%, the “% visual injury (crop phytotoxicity)” value [5, 8] was 0% and the “% visual injury, Obs (crop phytotoxicity)” value [5, 8] was 0%. For the same compound, the “% visual injury (crop phytotoxicity)” value ([5]; c1-2 Compound A 7.5/10, c3 Quinclorac 140, c4-5 A 7.5/10 + Quinclorac 140 g/ha) was 0%, the “% visual injury (crop phytotoxicity)” value ([5]; c1-3 Compound A 7.5/10/15, c4-5 Fluroxypyr-MHE 100/140, c6-8, c9-11 A 7.5/10/15 + Fluroxypyr-MHE 100, 140 g/ha) was 0% and the “% visual injury (crop phytotoxicity)” value ([5]; c1-3 Compound A 7.5/10/15, c4 Aminopyralid 5, c5-7 A 7.5/10/15 + Aminopyralid 5 g/ha) was 0%. The “% visual injury (crop phytotoxicity)” value ([5]; c1-3 Compound A 7.5/10/15, c4 Halauxifen-methyl 6, c5-7 A 7.5/10/15 + Halauxifen-methyl 6 g/ha) was 0%, the “% visual injury, Obs” value ([6]; CIRAR, Compound A 10 g/ha) was 20% and 30% and 28% and the “visual injury, Obs” value ([6]; CIRAR, Compound A 10 g/ha alone) was 50%. For the same compound, the “visual injury, Obs” value ([6]; CIRAR, Compound A 15 g/ha alone) was 60%, the “% visual injury (Obs)” value ([6]; CIRAR, alone 10 g/ha) was 23% and 30% and the “% visual injury Obs” value ([6]; CIRAR, alone 10 g/ha) was 50%. For the same compound, the “% visual injury Obs” value ([6]; CIRAR, alone, 15 g/ha) was 60%, the “% visual injury, Obs” value ([6]; CIRAR, applied alone, 10 g/ha) was 50% and 55% and the “% visual injury, Obs” value ([6]; CIRAR, applied alone, 15 g/ha) was 60%. The pest or weed control at […] ([6]; Cirsium arvense, post-emergence, CIRAR, Compound A 7.5 g/ha, read-out: % visual injury Obs) was 30%, the pest or weed control at 10 g/ha ([6]; Cirsium arvense, post-emergence, CIRAR, Compound A 10 g/ha, read-out: % visual injury Obs) was 50% and the pest or weed control at 15 g/ha ([6]; Cirsium arvense, post-emergence, CIRAR, Compound A 15 g/ha, read-out: % visual injury Obs) was 60%. The “CIRAR Obs (% visual injury)” value ([6]; Compound A 10 g/ha) was 20% and 23%, the “CIRAR % visual injury Obs” value ([6]; Compound A 10 g/ha (Table 42)) was 20% and the “CIRAR % visual injury Obs” value ([6]; Compound A 10 g/ha (Table 43)) was 20%. The “CIRAR % visual injury Obs” value ([6]; Compound A 10 g/ha (Table 44)) was 20%, the “CIRAR Obs (% visual injury)” value ([6]; Compound A 10 g/ha, without safener) was 28% and the “% visual injury, Obs” value ([7]; ABUTH) was 75%. For the same compound, the “ABUTH Obs (% visual injury)” value [7] was 78% and the “ABUTH Obs (% visual injury)” value ([7]; without safener) was 75%.
